Measured values: the NIST ThermoML archive (doi:10.1016/j.jct.2008.08.013)
± gives the expanded uncertainty stated by the source.

Settings: 101.33 kPa, Liquid, Vibrating tube method

| SMILES | mass density (288.15 K) [kg/m3] | mass density (293.15 K) [kg/m3] | mass density (298.15 K) [kg/m3] | mass density (303.15 K) [kg/m3] |
| --- | --- | --- | --- | --- |
| ClCCl [dichloromethane] | 1334.81 ± 0.18 | 1325.67 ± 0.18 | 1316.58 ± 0.17 | 1307.9 ± 0.17 |
| O=[N+]([O-])c1ccccc1 [nitrobenzene] | 1211.53 ± 0.13 | 1202.61 ± 0.13 | 1198.01 ± 0.12 | 1193.5 ± 0.12 |
| Nc1ccccc1 [aniline] | 1025.93 ± 0.1 | 1021.04 ± 0.09 | 1017.1 ± 0.09 | 1012.84 ± 0.09 |
